From patent US5760001A, “Cytokine restraining agents and methods of use in pathologies and conditions associated with altered cytokine levels” (Trega Biosciences, Inc., priority 1995, dated 1998)

Test system: TNF-α
Assay: Reduction of LPS-induced TNF levels in mice (IP dosing)
Assay type: in vivo
Settings: 30 μg/mouse IP before LPS 5 mg/kg IP; vs untreated control mice
Method: Balb/c female mice weighing approximately 20 g were placed into two groups, a control group and a treated group. Five mg/kg of LPS in 0.9% saline was administered by intraperitoneal (IP) injection into the control mice. Mice in the treated group were first injected IP with 30 μg EX-2 or 150 μg EX-3 in saline, then, one mn after EX-2 or EX-3 was administered, the mice received LPS as described for the control group.
Blood samples were collected from the orbital sinus of treated and control mice at various times up to four hr after LPS was administered. The plasma was separated by centrifugation at 3000×g for 5 min, then diluted with four volumes of 1× phosphate buffer saline (pH 7.4) containing 1% bovine serum albumin. A 100 μl sample of serum was assayed by ELISA for TNF-α (Genzyme; Cambridge Mass.).
The mean (±SEM) TNF-α level in six mice from each group was determined and the percent reduction in TNF levels was calculated.

## Ac-Nle-Gln-His-(D)Phe-Arg-(D)Trp-Gly-NH2 [EX-2]
  Reduction in TNF levels: 50%
